According to ChEMBL document CHEMBL3988442, “University of Dundee, Small-Polar-MMV Screening Library” (2021):

Key:
[1] = microbe, parasite or virus in culture; details: Mycobacterium tuberculosis, 96 h, read-out: pIC50 (converted)
[2] = microbe, parasite or virus in culture; details: Mycobacterium tuberculosis, 72 h, read-out: pIC50 (converted)

Row | Structure (SMILES) | IC50 [1] | IC50 [2]
1 | CC(C)c1ccc(CN2C(=O)C3(CCNCC3)Nc3ccccc32)cc1 | 22.3 µM | 32 µM
2 | c1csc(CCNc2nc(-c3ccncc3)nc3c2CCNCC3)c1 | 21.7 µM | 46.2 µM
3 | CC(C)CCN1CCNC(=O)C1CC(=O)NCCc1cc(O)ncn1 (stereo unspecified) | > 50.1 µM | > 50.1 µM
4 | COc1ccc(C(=O)N2CCOC(Cc3cccc(C(F)(F)F)c3)C2)o1 (stereo unspecified) | 10.7 µM | 35.1 µM
5 | CNc1cc(C)nc(NCc2cc(C)cc3c(C)c(C)[nH]c23)n1 | 35.8 µM | 23.6 µM
6 | Cc1ccc(C(=O)N2CC(Oc3ccccc3C)C2)s1 | 10.7 µM | 8.82 µM
7 | CN1CCC(N(C)CCC(=O)N2CCC(Cc3ccc(F)cc3)CC2)C1 (stereo unspecified) | > 50.1 µM | 22 µM
8 | COc1ccccc1-c1ncc(CN2C[C@@H](N(C)C)[C@H](C(C)C)C2)s1 | 25.4 µM | 31.4 µM
9 | COC(=O)c1ccc(-c2noc(CN(CCO)Cc3cccs3)n2)cc1 | > 50.1 µM | 47.5 µM
10 | COc1cc(Oc2cnc3ccccc3n2)ccc1CN1CCCC1 | 13 µM | 9.42 µM
11 | COc1cccc(CCC2CCCN(C(=O)c3ccc(OC)o3)C2)c1 (stereo unspecified) | 23 µM | 27.7 µM
12 | Fc1ccc(Cn2ncc3c2CN(c2noc(C4CC4)n2)C3)cc1 | 26.5 µM | > 50.1 µM
13 | COc1coc(CN2CCCC(CCc3ccc(F)c(F)c3)C2)cc1=O (stereo unspecified) | 14.3 µM | > 50.1 µM
14 | Cc1cnc(NC(=O)c2cccc(CN(C)Cc3ccno3)c2)s1 | 37.3 µM | 36.1 µM
15 | Cc1ccc(C)c(-n2cc(CN3CC[C@@H](O)C3)c(-c3ccccc3)n2)c1 | > 50.1 µM | 27.1 µM
16 | COc1ccc(-c2cccc(-c3ccn(CCN(C)C)n3)c2)nn1 | 16.3 µM | 19.9 µM
17 | Cc1nc2c(c(NCc3nc4ccccc4s3)n1)CCNCC2 | 45.8 µM | 23.7 µM
18 | O=C(O)c1cc(-c2ccoc2)cc(S(=O)(=O)NC2CC2)c1 | > 50.1 µM | > 50.1 µM
19 | Cc1ccc(CCNc2ncc(C)c(-c3ccnn3C)n2)s1 | > 50.1 µM | 11.2 µM
20 | COc1ccc(-c2noc(CN3CCN(c4cnccn4)CC3)n2)cc1 | 33.8 µM | 47 µM
21 | Cc1nnsc1CN1C[C@H]2CC[C@@H]1CN(Cc1ccccc1)C2 | 42.5 µM | 13.8 µM
22 | CCc1ccccc1OC1CN(C(=O)c2ccsc2)C1 | > 50.1 µM | 8.19 µM
23 | CCN(CC)CCn1cnc(-c2ccccc2)c1-c1ncc[nH]1 | 27.2 µM | > 50.1 µM
24 | Cc1cccc(CN2C[C@H]3CC[C@@H]2CN(Cc2[nH]cnc2C)C3)n1 | > 50.1 µM | > 50.1 µM

Row | Structure (SMILES) | IC50 [1] | IC50 [2]
25 | O=C(c1cccs1)N1CC(Oc2ccccc2Cl)C1 | 42.8 µM | 26.7 µM
26 | Cc1nc(NCCSc2cnn[nH]2)c2c(C)noc2n1 | > 50.1 µM | > 50.1 µM
27 | O=C(O)[C@@H]1CN(C(=O)NCC2CCCCC2)C[C@H]1c1ccccn1 | > 50.1 µM | > 50.1 µM
28 | O=C1CCC2(CCN(Cc3cscn3)CC2)CN1CCCO | > 50.1 µM | > 50.1 µM
29 | N#Cc1cccc(N2CCCC(CO)(Cc3ccccc3F)C2)n1 (stereo unspecified) | > 50.1 µM | 12.6 µM
30 | Cc1nc(N(C)C/C=C/c2ccccc2)c2cnn(C)c2n1 | > 50.1 µM | > 50.1 µM
31 | COc1cccc2c1OCC(C(=O)N1CCN(C3CCCC3)C(=O)C1)C2 (stereo unspecified) | > 50.1 µM | > 50.1 µM
32 | CCOc1ccc(OCc2nccc(-c3cc(C(=O)O)ccn3)n2)cc1 | > 50.1 µM | > 50.1 µM
33 | COc1ccc(F)c(-c2cc(C(=O)NC3CC3)ccn2)c1 | 10.6 µM | 22.7 µM
34 | COc1cc(Oc2ncccc2C(F)(F)F)ccc1CN1CCCC1 | 21 µM | > 50.1 µM
35 | Cc1nn(C)c2ncnc(N(C)CC3CCN(CC(C)C)C3)c12 (stereo unspecified) | > 50.1 µM | > 50.1 µM
36 | CCc1cc(N(C)Cc2ccncn2)n2nc(C)c(C)c2n1 | 14.2 µM | 33.8 µM
37 | CCN(Cc1cnn(C)c1)C[C@H]1CC[C@@H](Cc2cccc(CN)c2)O1 | > 50.1 µM | > 50.1 µM
38 | Cc1cc(N(C)Cc2ccsc2)n2nc(C)c(C)c2n1 | 12.6 µM | 12.6 µM
39 | Cc1cccc(CN2CCCC3(CCN(C4CCSCC4)C3)C2=O)c1 (stereo unspecified) | 15.8 µM | 10 µM
40 | C=Cc1ccc(C(=O)N2CCCC(Nc3ccc(F)c(F)c3)C2)cc1 (stereo unspecified) | 40.8 µM | > 50.1 µM
41 | CCOc1ccnc(N[C@@H](Cc2ccccc2)C(N)=O)n1 | > 50.1 µM | > 50.1 µM
42 | CCCc1nc(N2CC[C@@H](c3ccc4c(c3)OCO4)[C@H](O)C2)no1 | > 50.1 µM | 44.3 µM
43 | c1cc(-c2ccn(CCN3CCCC3)n2)cc(-c2nccs2)c1 | 27.4 µM | 43.6 µM
44 | Cc1ccccc1OCC1CCCN(c2cc(N)nc(N)n2)C1 (stereo unspecified) | 30.1 µM | 35.7 µM
45 | O=C(c1cc(COc2ccc3c(c2)OCO3)[nH]n1)N1CCCCO1 | 17.8 µM | > 50.1 µM
46 | COc1coc(CN2CCCC(CCc3ccc(F)cc3)C2)cc1=O (stereo unspecified) | 23.1 µM | > 50.1 µM
47 | Cc1nc(-c2cccc(N3CCC(N4CCCC4)CC3)c2)cs1 | 24.2 µM | > 50.1 µM
48 | CS(=O)(=O)N1CCc2[nH]cnc2C12CCN(C(=O)c1ccccc1)CC2 | > 50.1 µM | > 50.1 µM

Row | Structure (SMILES) | IC50 [1] | IC50 [2]
49 | Cc1cccnc1CN1CCOC(Cc2cccc3ccccc23)C1 (stereo unspecified) | > 50.1 µM | > 50.1 µM
50 | COc1ccc(F)c(CN2CCCC3(CCN(C4CCOCC4)C3)C2)c1 (stereo unspecified) | 25.1 µM | 16.7 µM
51 | CC(C)N(CCNc1nc(C2CCCC2)nc2c1cnn2C)C(C)C | 18.7 µM | 20.6 µM
52 | CCCc1cncnc1N1CCC(NCc2cc3ccccc3[nH]2)CC1 | 18.3 µM | 18.3 µM
53 | COC(=O)c1cc(C)nc(N2CCN(Cc3cc(C(C)C)no3)CC2)n1 | > 50.1 µM | > 50.1 µM
54 | Cc1ccc(N2CCN(C(=O)CCC(F)(F)F)C(C)C2)cc1 (stereo unspecified) | > 50.1 µM | > 50.1 µM
55 | O=C(c1ncoc1C1CC1)N1CCCN(CCCc2ccccc2)CC1 | > 50.1 µM | > 50.1 µM
56 | COc1cccc(-c2noc(-c3ccc(NCC(C)O)nc3)n2)c1OC (stereo unspecified) | 19.4 µM | > 50.1 µM
57 | Fc1ccccc1OC1CCN(CCn2cc3ccccc3n2)CC1 | 47.9 µM | > 50.1 µM
58 | O=C(CCC(F)(F)F)N1CCCC(CO)(CC2CC2)C1 (stereo unspecified) | 4.11 µM | 2.54 µM
59 | Cc1nn2c(NCC(=O)NC3CC3)cc(-c3ccccc3)nc2c1C | 12.1 µM | 13.4 µM
60 | CC(C)N1CC2(CCCN(Cc3noc(C4CCCC4)n3)C2)CCC1=O (stereo unspecified) | > 50.1 µM | > 50.1 µM
61 | CCCn1cnnc1-c1nc2c([nH]1)CC(c1ccc(Cl)cc1)CNC2=O (stereo unspecified) | 14.2 µM | 17.5 µM
62 | Cc1cnc(NC(C)Cc2cccnc2)nc1N(C)C (stereo unspecified) | > 50.1 µM | > 50.1 µM
63 | Cc1ccsc1[C@@H]1CCN(C(=O)CCOc2ccccc2)C[C@H]1O | > 50.1 µM | > 50.1 µM
64 | COc1cc(-c2cccc3c2OC(CN)C3)cc(OC)c1OC (stereo unspecified) | 43.9 µM | 43.9 µM
65 | Cc1nc(N)cc(N2CCCC(COc3cccc(F)c3)C2)n1 (stereo unspecified) | 27.9 µM | 46 µM
66 | CCCc1ccc2oc(C(=O)N3CCN(CCOC)CC3)c(C)c2c1 | 4.11 µM | 4.94 µM
67 | C=Cc1ccc(CN2C(=O)C3(CCNCC3)Nc3ccccc32)cc1 | 26.5 µM | 28.2 µM
68 | Fc1cccc(OC2CCN(CCn3cc4ccccc4n3)CC2)c1 | 26.1 µM | > 50.1 µM
69 | CCCC1C=CCN1C(=O)c1cc(COc2ccc3c(c2)OCO3)[nH]n1 (stereo unspecified) | 11.8 µM | > 50.1 µM
70 | Cc1nn(C)c(C)c1CN(CCO)C(=O)C1COc2ccccc2C1 (stereo unspecified) | > 50.1 µM | > 50.1 µM
71 | COc1cccc(-c2noc3c2CN(c2nc(C)ncc2C)CC3)c1 | 34.5 µM | 3.39 µM
72 | COc1coc(CN2CCCC(CCc3ccccc3F)C2)cc1=O (stereo unspecified) | 13.3 µM | 47.3 µM

Row | Structure (SMILES) | IC50 [1] | IC50 [2]
73 | COc1ccc([C@@H]2C[C@H](NC(C)=O)C[C@H](Cc3ccccc3)O2)cn1 | 28.3 µM | > 50.1 µM
74 | CCc1ccc(C(=O)N2CCN(Cc3ccc(F)cc3)CC2)s1 | 28.4 µM | 19.9 µM
75 | Cc1ccc(CN2CCN(C(=O)c3ccc(Br)o3)CC2)cc1 | 37.2 µM | 30.4 µM
76 | COc1ccc(-c2nc(CN(C)Cc3nncn3C)c(C)o2)c(C)c1C | 10.1 µM | 42.9 µM
77 | Cc1ccccc1N1CCN(c2cc(N(C)C)ncn2)C(C)C1 (stereo unspecified) | > 50.1 µM | > 50.1 µM
78 | CCNc1ccnc(N2Cc3cnn(Cc4ccc(F)cc4)c3C2)n1 | 27.4 µM | > 50.1 µM
79 | O=S(=O)(NCCNc1ccc(-n2cccn2)nn1)c1ccccc1 | 15.9 µM | 24.9 µM
80 | Cc1ccc2[nH]c(=O)cc(C(=O)NCCCn3nccc3C3CC3)c2c1 | > 50.1 µM | 26.1 µM
81 | CCc1ccccc1OCCN(C)C(=O)CN1CCCC1 | > 50.1 µM | 39.2 µM
82 | Cc1cccnc1CN(C)C(C(=O)O)c1ccc(-n2cccn2)cc1 (stereo unspecified) | 20.1 µM | 27 µM
83 | CC(C)c1cc(N(C)Cc2noc(C3CCCC3)n2)n2nccc2n1 | 15.5 µM | 9.63 µM
84 | CC(=O)Nc1cccc(-c2ccccc2CCN)c1 | > 50.1 µM | 49.7 µM
85 | CCNc1ncc(C(=O)N2CCC(c3ccccc3C(=O)O)C2)cn1 (stereo unspecified) | > 50.1 µM | > 50.1 µM
86 | CCn1cncc1CNc1ccc(-c2nc(CC(C)C)no2)cn1 | 5.92 µM | > 50.1 µM
87 | Cc1ccc2nc(C3CCCN3Cc3nnc(C)s3)[nH]c2c1 (stereo unspecified) | > 50.1 µM | > 50.1 µM
88 | Cc1nc(O)cc(CCNC(=O)C2CC(=O)N(CC(C)C)C2)n1 (stereo unspecified) | > 50.1 µM | > 50.1 µM
89 | Cc1cc(=O)[nH]c(SC(C)C(=O)N2CCC(NS(C)(=O)=O)CC2)n1 (stereo unspecified) | > 50.1 µM | > 50.1 µM
90 | COCCc1noc(CNC2CCCC(C)(C)C2)n1 (stereo unspecified) | > 50.1 µM | 2.66 µM
91 | COc1ccc(CN2CCCC(Nc3cccc(F)c3)C2)cc1O (stereo unspecified) | 16.5 µM | 11 µM
92 | Cn1cc(CN2CC[C@@H]3[C@@H](CCC(=O)N3CCC3=CCCCC3)C2)cn1 | > 50.1 µM | > 50.1 µM
93 | CC(C)c1cc(CN2CCNCC2)no1 | > 50.1 µM | 32.6 µM
